# Reference: patent US20170355959A1, “METHODS FOR MOBILISING POPULATIONS OF STEM CELLS” (Imperial Innovations Limited, priority 2014, published 2017)
# Tests used:
# CXCL12 = CXCL12 ELISA of bone marrow supernatant; assay type: in vivo, mice; conditions: 4 days of treatment, bone marrow 2 hours after final injection
# Protocol: (A) Mice were pretreated with BRL 37344 (β3), G-CSF or vehicle (VEH) once daily on 4 consecutive days. 2 hours after the final BRL 37344 injection or 24 hours after the final G-CSF injection, bone marrow was collected for quantification of CXCL12 levels (n=16 and n=6-8, respectively). (B) Bone marrow cells were collected from naïve mice and were treated in vitro with clenbuterol (β2), BRL 37344 (β3) or vehicle (VEH). CFU-Fs per 10^6 cells are shown (n=6 mice per group). (C) Mice were pre-treated with AM 251, AM 630, BRL 37344 (β3) or vehicle (VEH) once daily on 4 consecutive days. 2 hours after the last injection, bone marrow cells were collected for enumeration of CFU-Fs. CFU-Fs per 10^6 cells are shown (n=6-8 mice per group). (D) CB1 receptor antagonist AM 251 (CB1l, CB2 receptor antagonist AM 630 (CB2l, BRL 37344 (β3) or vehicle. Data represented as mean±SEM. (A) **p<0.01 (unpaired student t-test) and (B-D) *p<0.05, **p<0.01, ***p<0.001 (one-way ANOVA).
# CXCL12 content in blood plasma and bone marrow supernatant was quantified using CXCL12 capture (MAB350) and detection (BAF351) antibodies (RnD systems), and the assay was performed according to the manufacturers' instructions. Recombinant mouse CXCL12 (RnD systems) was used to generate a standard curve.
# CFU-Fs (MSCs) = assay: In situ perfusion of mouse hind limb, CFU-Fs in perfusate; assay type: in vivo, mice; conditions: four day pretreatment, b3 adrenergic agonist in combination with FAAH inhibitor
# Protocol: Mice were administered BRL 37344 (10 mg/kg i.p.) or vehicle on 4 consecutive days. 1 hour after the last injection, the mice were anaesthetized. The femoral vein and artery were exposed and cannulated in situ immediately after the hind limb was isolated by occlusion of the surrounding arteries as previously described (Pitchford et al, 2009; Pitchford et al, 2010). Perfusion buffer was infused via the arterial cannula and removed from the venous cannula using a Minipuls Peristaltic Pump (Anachem). The hind limb was initially infused with AMD3100 (0.1 mM) or vehicle for 10 minutes using an infusion/withdrawal pump (Harvard Instruments) and was further perfused for 50 minutes with perfusion buffer (Pitchford et al, 2010). The perfusate was collected over 60 minutes and then centrifuged and resuspended in DMEM (Gibco) +20% fetal bovine serum for enumeration of CFU-HPCs and CFU-Fs.
# Harvested peripheral blood or perfusate was red blood cell-lysed and 1×10^6 cells were added to tissue culture-treated 6-well plates containing 3 ml of Mesencult™ (05502; StemCell Technologies) to select for CFU-Fs. Similarly, 1×10^6 bone marrow cells harvested by bone marrow flush of the hind limb femur were plated for CFU-Fs. Cultures were incubated at 37° C. and media was changed on day 7. Bone marrow-derived CFU-Fs were enumerated on day 13 and blood- and perfusate-derived CFU-Fs were enumerated on day 21. Blood derived-CFU-Fs were further expanded and assessed for mesenchymal lineage markers by flow cytometry and following CD45 depletion (flow cytometry sorting of CD45 negative for mesenchymal trilineage differentiation (Supplemental Experimental Procedures).
# HSPCs = assay: Mobilization of HSPCs into peripheral blood (CFU-HPC assay); assay type: in vivo; conditions: mice pre-treated with 0-30 mg/kg BRL37344 for 4 days
# [1] = tested on: endocannabinoids and N-acyl ethanolamides; assay: Lipid mediator quantification in bone marrow by UPLC/ESI-MS/MS; assay type: in vivo, mice
# Protocol: Plasma and bone marrow flush (pool of 3 mice, n=1) were processed in order for the extraction of endocannabinoids and congeners (Astarita and Piomelli, 2009; Kingsley and Marnett, 2009). Samples were analysed on an electrospray (ESI) tandem quadrupole Xevo TQ-S mass spectrometer (MS/MS; Waters) coupled to an Acquity Ultrahigh Pressure Chromatography (UPLC) system, and the concentration of analytes was calculated (TargetLynx). Further details concerning extraction and analysis can be found in the Supplemental Experimental Procedures.
# Bone marrow flushed from the femurs of 3 mice were pooled (6 ml in total) per treatment to give an n=1 sample. This volume was required to achieve sufficient concentrations of endocannabinoids and N-acyl ethanolamides for detection by UPLC/ESI-MS/MS. Extraction of lipids was carried out by addition of chloroform:methanol (2:1, v/v) (Astarita and Piomelli, 2009; Kingsley and Mamett, 2009). Specifically, ice cold chloroform:methanol was added to each bone marrow supernatant (ml per pooled bone marrow sample), followed by the internal standards AEA-d8 (20 ng) and 2AG-d8 (40 ng). The resulting suspensions were kept on ice for 30 min with occasional vortexing and centrifuged at 5000 rpm for 8 min, to separate the organic and aqueous phases. The organic layer (bottom) from each sample was then removed into a clean vial. The supernatant was evaporated under a fine stream of nitrogen. Once dried the extract was reconstituted in 1 ml of chloroform and semi-purified by SPE (Guo et al, 2010). Briefly, the silica cartridge was equilibrated with 5×1 ml cholorform, the extract was applied, the cartridge was washed with 2×1 ml chloroform and the endocannabinoids eluted with 5×1 ml chloroform:methanol (2:1 v/v). The remaining residue, reconstituted in 100 μL ethanol was stored at −20° C., for no more than 1 week, awaiting UPLC/ESI-MS/MS analysis.
# All analysis was performed on an electrospray (ESI) tandem quadrupole Xevo TQ-S mass spectrometer (Waters) coupled to an Acquity Ultrahigh Pressure Chromatography (UPLC) system. The system was controlled by MassLynx v4.1 Software. TargetLynx was used to construct calibration lines and calculate the concentration of analytes of interest. Optimised ESI-MS/MS conditions were achieved through the use of Intellistart within MassLynx software. Individual standards (100 pg/μl) were introduced into the spectrometer by direct infusion via the Xevo TQ-S integrated syringe pump (flow rate 10 μl/min) combined with UPLC solvent flow (rate 0.2 mL/min). All analytes were monitored on the positive ionisation mode. Capillary voltage was set at 2000V, source temperature at 150° C., desolvation temperature at 400° C. and the cone voltage at 20 V. […]
# [2] = 4 days, in combination with FAAH inhibition, versus FAAH inhibition only
compound,measurement,setting,value
C[C@H](Cc1ccc(OCC(=O)O)cc1)NC[C@H](O)c1cccc(Cl)c1 [BRL37344],levels of CXCL12 in the bone marrow,CXCL12,had no effect on levels of CXCL12 in the bone marrow
same,MSC egress from the bone marrow in response to infusion of the CXCR4 antagonist,CFU-Fs (MSCs),significantly enhanced both HPC and MSC egress from the bone marrow
same,dose dependence of HSPC mobilization in response to the CXCR4 antagonist,HSPCs,dose response relationship
same,bone marrow levels of 2-AG,[1]; [2],significantly increased
same,bone marrow levels of DHEA,[1]; [2],significantly increased
same,bone marrow levels of PEA,[1]; [2],significantly increased
same,"bone marrow levels of other N-acyl ethanolamides, including AEA",[1]; following administration in vivo,remained unchanged
